Values of other authors as cited in patent US4127528A, “Novel derivatives of alpha-endorphin, intermediates therefor and compositions and methods employing said derivatives” (priority 1977, dated 1978).

How the values were obtained:
rat = conditions: injected directly into the brain of the rat
[1] = test system: brain opiate receptor sites; conditions: natural peptide

H-Tyr-Gly-Gly-Phe-Met-OH [methionine enkephalin]
analgesic activity (rat): only weak analgesic activity of short duration | activity in bioassays for opiate activity (opiate activity): very active | binding to partially purified brain opiate receptor sites [1]: binds stereo-specifically
